From patent US20260077051A1, “COMPOUNDS FOR THE DEGRADATION OF EGFR KINASE” (BeOne Medicines I GmbH, priority 2023, published 2026)

Legend:
[1] = target: T1, EGFR L858R (BaF3-L858R cells) (Homo sapiens, UniProt P00533, L858R); assay: EGFR degradation in BaF3-L858R cells (HTRF assay); assay type: cell-based; settings: 16 h treatment; for DC50: IC50(DC50) of EGFR degradation; for Dmax: maximum percentage of inhibition (degradation)
T1 construct: host or cells: BaF3
Method in brief: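 BaF3-L858R cells were exposed for 16 h at 37° C to 8 doses, 5-fold dilutions starting at 10 uM final, in 0.1% DMSO medium. Lysates were incubated overnight with HTRF antibodies and read at 665/620 nm. Degradation was taken relative to DMSO control, and DC50 and Dmax came from a four-parameter fit.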

[2] = target: T2, EGFR-L858R/C797S (H1975-clone #8 cells) (Homo sapiens, UniProt P00533, C797S/L858R); assay: EGFR degradation in H1975-clone#8 (L858R/C797S) cells (HTRF assay); assay type: cell-based; settings: 16 h treatment; for DC50: IC50(DC50) of EGFR degradation; for Dmax: maximum percentage of inhibition (degradation)
T2 construct: expressed in transfected cells; host or cells: H1975 (lentiviral transduction, endogenous EGFR knocked out, single clone #8)
T2 sequence (P00533 25-1210 C797S/L858R): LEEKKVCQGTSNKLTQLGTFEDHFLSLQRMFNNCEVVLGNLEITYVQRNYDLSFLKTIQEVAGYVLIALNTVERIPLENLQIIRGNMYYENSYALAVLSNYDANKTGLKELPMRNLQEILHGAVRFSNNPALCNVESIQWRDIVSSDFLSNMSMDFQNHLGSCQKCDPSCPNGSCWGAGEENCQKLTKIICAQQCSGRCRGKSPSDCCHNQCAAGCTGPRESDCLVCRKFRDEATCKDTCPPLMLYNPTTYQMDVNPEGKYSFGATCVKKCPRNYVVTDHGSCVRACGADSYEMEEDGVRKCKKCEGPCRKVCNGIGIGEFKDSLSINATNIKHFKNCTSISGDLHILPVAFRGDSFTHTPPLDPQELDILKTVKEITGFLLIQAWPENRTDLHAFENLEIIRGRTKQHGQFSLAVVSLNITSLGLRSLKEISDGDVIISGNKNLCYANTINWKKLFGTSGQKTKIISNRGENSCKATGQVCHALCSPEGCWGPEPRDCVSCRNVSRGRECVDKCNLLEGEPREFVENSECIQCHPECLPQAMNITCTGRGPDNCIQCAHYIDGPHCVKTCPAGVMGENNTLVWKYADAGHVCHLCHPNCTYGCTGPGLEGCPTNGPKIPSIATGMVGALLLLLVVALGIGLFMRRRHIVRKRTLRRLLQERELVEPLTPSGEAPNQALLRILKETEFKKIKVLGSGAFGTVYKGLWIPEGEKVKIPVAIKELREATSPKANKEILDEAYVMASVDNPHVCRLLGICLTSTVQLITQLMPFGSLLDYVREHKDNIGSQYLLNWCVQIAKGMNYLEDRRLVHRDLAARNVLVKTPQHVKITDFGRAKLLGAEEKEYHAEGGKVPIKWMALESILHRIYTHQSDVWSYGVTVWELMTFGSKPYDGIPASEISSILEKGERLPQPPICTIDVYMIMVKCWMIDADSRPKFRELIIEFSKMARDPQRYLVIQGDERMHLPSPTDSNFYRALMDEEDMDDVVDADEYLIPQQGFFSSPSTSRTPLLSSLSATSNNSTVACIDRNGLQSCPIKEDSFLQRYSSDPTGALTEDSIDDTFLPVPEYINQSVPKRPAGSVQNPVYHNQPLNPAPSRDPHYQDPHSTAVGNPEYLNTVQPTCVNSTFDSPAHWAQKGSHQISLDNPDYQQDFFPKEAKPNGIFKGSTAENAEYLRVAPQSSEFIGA
Method in brief: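 H1975 cells engineered to carry only homozygous exogenous EGFR L858R/C797S (clone #8) treated 16 h at 37 °C with compound, 8 doses from 10 uM in 5-fold steps, 0.1% DMSO. Remaining EGFR in lysates measured by HTRF; degradation percentage relative to DMSO control, DC50 and Dmax from 4-parameter fit.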

T1 sequence (P00533 25-1210 L858R): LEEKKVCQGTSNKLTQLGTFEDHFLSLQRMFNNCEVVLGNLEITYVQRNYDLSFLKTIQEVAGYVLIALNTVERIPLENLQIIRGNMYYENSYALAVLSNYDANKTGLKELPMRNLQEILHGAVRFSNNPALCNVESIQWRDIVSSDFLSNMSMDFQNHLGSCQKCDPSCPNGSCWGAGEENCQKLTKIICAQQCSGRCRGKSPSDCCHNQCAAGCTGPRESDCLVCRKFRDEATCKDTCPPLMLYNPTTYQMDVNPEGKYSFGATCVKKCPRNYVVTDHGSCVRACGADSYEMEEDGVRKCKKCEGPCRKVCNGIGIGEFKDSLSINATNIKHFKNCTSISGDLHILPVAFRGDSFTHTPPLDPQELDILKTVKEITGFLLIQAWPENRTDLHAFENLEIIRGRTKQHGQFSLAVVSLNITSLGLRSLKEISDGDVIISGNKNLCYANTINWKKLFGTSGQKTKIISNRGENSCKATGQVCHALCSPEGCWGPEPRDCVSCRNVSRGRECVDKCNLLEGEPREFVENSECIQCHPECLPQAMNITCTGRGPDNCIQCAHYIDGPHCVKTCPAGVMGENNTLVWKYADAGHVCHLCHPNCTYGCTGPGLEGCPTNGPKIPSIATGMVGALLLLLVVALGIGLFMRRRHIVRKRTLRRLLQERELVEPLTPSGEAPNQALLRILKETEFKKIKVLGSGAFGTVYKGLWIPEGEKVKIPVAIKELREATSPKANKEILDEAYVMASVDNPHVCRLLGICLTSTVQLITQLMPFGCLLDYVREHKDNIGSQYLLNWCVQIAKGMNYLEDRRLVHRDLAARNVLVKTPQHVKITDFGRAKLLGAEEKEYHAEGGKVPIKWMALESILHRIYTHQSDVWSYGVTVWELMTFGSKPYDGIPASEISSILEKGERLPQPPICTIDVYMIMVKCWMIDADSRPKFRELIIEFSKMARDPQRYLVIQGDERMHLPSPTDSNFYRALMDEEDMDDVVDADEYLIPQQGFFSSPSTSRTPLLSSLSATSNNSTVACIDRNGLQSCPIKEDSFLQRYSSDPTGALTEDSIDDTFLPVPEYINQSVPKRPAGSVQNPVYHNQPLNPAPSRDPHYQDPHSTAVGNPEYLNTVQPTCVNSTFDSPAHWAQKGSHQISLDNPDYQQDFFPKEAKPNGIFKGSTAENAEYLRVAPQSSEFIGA

Structure (SMILES) | DC50 [1] [nM] | Dmax [1] [%] | DC50 [2] [nM] | Dmax [2] [%]
Cc1cc2cc(n1)-c1cnn(C)c1OCC[C@]1(C)C[C@H]1CN1/C(=N/C2=O)Nc2ccc(N3CCN([C@@H]4CCN(c5cnc(C6CCC(=O)NC6=O)cc5C)C[C@@H]4F)CC3)cc21 (stereo partly drawn) [Example 59, 3-(5-((3S,4R)-3-fluoro-4-(4-((7^1R,7^2S,E)-1^1,2^6,7^2-trimethyl-3-oxo-5^2,5^3-dihydro-1^1H,5^1H-10-oxa-4-aza-5 (2,1)-benzo[d]imidazola-2 (2,4)-pyridina-1 (4,5)-pyrazola-7 (1,2)-cyclopropanacyclodecaphane-5^6-yl)piperazin-1-yl)piperidin-1-yl)-4-methylpyridin-2-yl)piperidine-2,6-dione] | 3.54 | 95.5 | 0.635 | 72.7
Cc1cc2cc(n1)-c1cnn(C)c1OCC[C@]1(C)C[C@H]1CN1/C(=N/C2=O)Nc2ccc(N3CCN([C@H]4CCN(c5cc(F)c(C6CCC(=O)NC6=O)nc5C)C[C@H]4F)CC3)cc21 (stereo partly drawn) [Example 61, 3-(3-fluoro-5-((3R,4S)-3-fluoro-4-(4-((7^1R,7^2S,E)-1^1,2^6,7^2-trimethyl-3-oxo-5^2,5^3-dihydro-1^1H,5^1H-10-oxa-4-aza-5 (2,1)-benzo[d]imidazola-2 (2,4)-pyridina-1 (4,5)-pyrazola-7 (1,2)-cyclopropanacyclodecaphane-56-yl)piperazin-1-yl)piperidin-1-yl)-6-methylpyridin-2-yl)piperidine-2,6-dione] | 0.99 | 91.8 | 1.29 | 80.8
Cc1cc2cc(n1)-c1cnn(C)c1OCC[C@]1(C)C[C@H]1CN1/C(=N/C2=O)Nc2ccc(N3CCN([C@H]4CCN(c5ccc(C6CCC(=O)NC6=O)nc5C)C[C@H]4F)CC3)cc21 (stereo partly drawn) [Example 62, 3-(5-((3R,4S)-3-fluoro-4-(4-((7^1R,7^2S,E)-1^1,2^6,7^2-trimethyl-3-oxo-5^2,5^3-dihydro-1^1H,5^1H-10-oxa-4-aza-5 (2,1)-benzo[d]imidazola-2 (2,4)-pyridina-1 (4,5)-pyrazola-7 (1,2)-cyclopropanacyclodecaphane-5^6-yl)piperazin-1-yl)piperidin-1-yl)-6-methylpyridin-2-yl)piperidine-2,6-dione] | 0.69 | 93.8 | 0.612 | 76.8
